Among the test systems are DLD-1 colon; SNB-78 CNS; LXFL 529 NSCLC; XF 498 CNS; M19-MEL melanoma; KM20L2 colon; DMS 273 small cell lung; DMS 114 small cell lung; HOP-18 NSCLC; RXF-631 renal.
Common to all, as to assay: NCI anticancer screen, dose series, 48 h

Structures are written as SMILES.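 In this assay, cells in 96-well plates receive the compound at five concentrations for 48 hours. Endpoints are linearly interpolated between the surrounding concentrations. TGI: total growth inhibition.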

In the case of `COc1ccc(C2C(Cl)C(=O)N2NC(=O)c2ccc(N)cc2)cc1OC` (centres undefined), the TGI in the assay with DLD-1 colon was 15.4 µM; in the assay with SNB-78 CNS, over 100 µM; with LXFL 529 NSCLC, 3.78 µM; in the assay on XF 498 CNS, 2.3 µM; in the assay with M19-MEL melanoma it was 16.1 µM; in the assay with KM20L2 colon, 27.8 µM. In addition, in the assay with DMS 273 small cell lung, the TGI was found to be 11.8 µM.

As to `O=C1C=C(Nc2ccccc2C(=O)CC(=O)C(=O)Nc2ccc(Cl)c(Cl)c2)c2ccccc2C1=O`, the TGI was 66.7 µM in the assay with DMS 114 small cell lung, over 100 µM in the assay on DLD-1 colon, over 100 µM with SNB-78 CNS and 8.96 µM in the assay on M19-MEL melanoma.

Consider `COc1ccc(/C(Cl)=C/c2ccc(Cl)c(Cl)c2)cc1`, for which the TGI in the assay with DMS 114 small cell lung was 43.8 µM; in the assay with DLD-1 colon, over 100 µM; in the assay on SNB-78 CNS, 72.1 µM; in the assay with LXFL 529 NSCLC it was over 100 µM; in the assay with XF 498 CNS, 44.3 µM; with M19-MEL melanoma, over 100 µM. The TGI in the assay with HOP-18 NSCLC was found to be 88.9 µM; with KM20L2 colon, 63.7 µM; with DMS 273 small cell lung, 67.5 µM.

As for `CCOC(=O)c1cn2c([nH]c3ccccc32)c(C#N)c1=O`, the TGI in the assay with DLD-1 colon, in the assay on SNB-78 CNS, with LXFL 529 NSCLC, with XF 498 CNS, in the assay with M19-MEL melanoma and in the assay on HOP-18 NSCLC was over 100 µM throughout. Moreover, the TGI with KM20L2 colon, in the assay with DMS 273 small cell lung and with RXF-631 renal was over 100 µM each time.

As for `COC(=O)c1cc(C)n(NC(=O)OC(C)(C)C)c1C`, the TGI in the assay with DMS 114 small cell lung, with DLD-1 colon, in the assay with SNB-78 CNS, with LXFL 529 NSCLC, with M19-MEL melanoma and in the assay on KM20L2 colon was over 100 µM each time. This compound gave a TGI with DMS 273 small cell lung of over 100 µM.

For the compound `C1=c2ccccc2=C2C(=C(c3ccccc3)C(c3ccccc3)=NN2c2ccccc2)S1`, the TGI with DMS 114 small cell lung, in the assay with DLD-1 colon, in the assay with SNB-78 CNS, in the assay with LXFL 529 NSCLC, in the assay with M19-MEL melanoma and in the assay with HOP-18 NSCLC was over 100 µM each time. Besides, the TGI in the assay on KM20L2 colon and with DMS 273 small cell lung was over 100 µM throughout.

As to `Cn1c(N)c(-c2c3ccccc3nc3ccccc23)c(=O)n(C)c1=O`, the TGI in the assay on DMS 114 small cell lung, in the assay with LXFL 529 NSCLC, with M19-MEL melanoma, in the assay with HOP-18 NSCLC and in the assay on KM20L2 colon was over 100 µM throughout.

As to `C[N+](C)(Cc1ccc(NC(=O)CCCC(=O)ON2C(=O)CCC2=O)cc1)c1ccccc1`, the TGI in the assay with DLD-1 colon was over 100 µM; with LXFL 529 NSCLC, over 100 µM; in the assay with M19-MEL melanoma, over 100 µM; in the assay on HOP-18 NSCLC, under 0.01 µM; with DMS 273 small cell lung it was over 100 µM.

With `COC1=CC(=O)c2ccccc2C1(C)C1=NC(C)(C)CO1` (centres undefined), the TGI in the assay on DMS 114 small cell lung, in the assay with DLD-1 colon, in the assay on LXFL 529 NSCLC, with XF 498 CNS, with M19-MEL melanoma and in the assay on HOP-18 NSCLC was over 100 µM in each case. Besides, the TGI in the assay with KM20L2 colon, with DMS 273 small cell lung and in the assay on RXF-631 renal was over 100 µM in each case.

Take `O=S(Cc1cc2c(cc1Br)OCO2)c1ccccc1` (centres undefined): the TGI in the assay on DMS 114 small cell lung is 61.8 µM; in the assay on DLD-1 colon it was 49.5 µM; with SNB-78 CNS, over 100 µM; in the assay on LXFL 529 NSCLC, over 100 µM; in the assay with M19-MEL melanoma, over 100 µM; in the assay with HOP-18 NSCLC it was over 100 µM. The TGI with KM20L2 colon and in the assay with DMS 273 small cell lung was over 100 µM each time.

In the case of `CC1=NN(c2ccccc2)C(=O)C1=C1SCCCS1`, the TGI with DMS 114 small cell lung was 45.2 µM; with DLD-1 colon it was 45.9 µM; in the assay with SNB-78 CNS, over 100 µM; in the assay on LXFL 529 NSCLC, over 100 µM; in the assay on XF 498 CNS it was 58.6 µM; in the assay with M19-MEL melanoma, over 100 µM. The TGI with HOP-18 NSCLC, in the assay on KM20L2 colon and with DMS 273 small cell lung was over 100 µM in each case.

For the compound `COCC12CC(CC1=O)C1C2ON2c3ccccc3C(=O)C12c1ccccc1` (centres undefined), the TGI with DMS 114 small cell lung, in the assay on DLD-1 colon, in the assay on SNB-78 CNS, in the assay with LXFL 529 NSCLC, with XF 498 CNS and with HOP-18 NSCLC was over 100 µM throughout. Further, the TGI with KM20L2 colon and in the assay with DMS 273 small cell lung was over 100 µM in each case.

Regarding `COc1cc(C2C(Cl)C(=O)N2NC(=O)Cc2ccccc2)ccc1O` (centres undefined), the TGI in the assay with DMS 114 small cell lung, with DLD-1 colon, in the assay with SNB-78 CNS, in the assay on LXFL 529 NSCLC, in the assay with XF 498 CNS and in the assay on M19-MEL melanoma was over 100 µM in each case. Besides, the TGI in the assay on HOP-18 NSCLC, in the assay on KM20L2 colon and in the assay on DMS 273 small cell lung was over 100 µM throughout.

Consider `Cn1c2c(cc(-c3ccccc3)c1=O)COc1ccccc1-2`, for which the TGI was 36.2 µM in the assay on DMS 114 small cell lung; over 100 µM in the assay on DLD-1 colon; over 100 µM in the assay with SNB-78 CNS; over 100 µM with LXFL 529 NSCLC; 26.1 µM in the assay with XF 498 CNS; 64.2 µM with M19-MEL melanoma. The TGI in the assay with HOP-18 NSCLC is over 100 µM; in the assay with KM20L2 colon it was over 100 µM; in the assay on DMS 273 small cell lung, 43.8 µM.

Consider `O=C(Nc1cc(Cl)c(Cl)cc1Cl)C(=O)C(C(=O)c1ccc2ccccc2c1)C1OC(=O)c2ccccc21` (centres undefined), for which the TGI was 44.1 µM in the assay on DMS 114 small cell lung; 32.9 µM in the assay on DLD-1 colon; 38.6 µM in the assay with SNB-78 CNS; 22.6 µM in the assay with LXFL 529 NSCLC; 53.6 µM with M19-MEL melanoma.

As to `COc1ccc(C2S/C(=C\c3cccc(O)c3)C(=O)N2NC(=O)Cc2ccccc2)cc1` (centres undefined), the TGI in the assay on DMS 114 small cell lung, with DLD-1 colon, in the assay with LXFL 529 NSCLC, in the assay on M19-MEL melanoma, in the assay on HOP-18 NSCLC and in the assay on DMS 273 small cell lung was over 100 µM in each case.

Consider `Nc1ccc(C(=O)NN2C(=O)C(Cl)C2c2cccc([N+](=O)[O-])c2)cc1` (centres undefined), for which the TGI was 36.5 µM with DMS 114 small cell lung; 34.7 µM with DLD-1 colon; over 100 µM with SNB-78 CNS; 34.9 µM in the assay with LXFL 529 NSCLC; 26.5 µM in the assay with XF 498 CNS; 34.1 µM in the assay on M19-MEL melanoma. For the same compound, the TGI with KM20L2 colon is 43.6 µM; in the assay with DMS 273 small cell lung it was 32.5 µM.

`CCCOCN1COCN=C1NC#N`: the TGI in the assay with DMS 114 small cell lung was 39.7 µM; with DLD-1 colon, over 100 µM; with SNB-78 CNS it was over 100 µM; with LXFL 529 NSCLC it was over 100 µM; in the assay with XF 498 CNS it was over 100 µM; in the assay on M19-MEL melanoma, 88.1 µM. In addition, the TGI in the assay with HOP-18 NSCLC is over 100 µM; with KM20L2 colon it was over 100 µM; in the assay on DMS 273 small cell lung, 41.9 µM.

The record behind these values is PubChem BioAssay (NCI).
